Consider two compounds from ChEMBL document CHEMBL5727382, “[1,2,3]triazolo[4,5-D]pyrimidine derivatives with affinity for the type-2 cannabinoid receptor” (2019).

One test has as its target Cannabinoid receptor 2 (Homo sapiens, UniProt P34972). In words: (§1) Radioligand Binding Assay: he affinity of the compounds of the invention for cannabinoid receptors was determined using recommended amounts of membrane preparations (PerkinElmer) of human embryonic kidney (HEK) cells expressing the human CNR1 or CNR2 receptors in conjunction with 1.5 or 2.6 nM [3H]-CP-55,940 (Perkin Elmer) as radioligand, respectively. Binding was performed in binding buffer (50 mM Tris, 5 mM MgCl2, 2.5 mM EDTA, and 0.5% (wt/vol) fatty acid free BSA, pH 7.4 for CB1 receptor and 50 mM Tris, 5 mM MgCl2, 2.5 mM EGTA, and 0.1% (wt/vol) fatty acid free BSA, pH 7.4 for CB2 receptor) in a total volume of 0.2 mL for 1 h at 30° C. shaking. The reaction was terminated by rapid filtration through microfiltration plates coated with 0.5% polyethylenimine (UniFilter GF/B filter plate; Packard). Bound radioactivity was analyzed for Ki using nonlinear regression analysis (Activity Base, ID Business Solution, Limited), with the Kd values for [3H]CP55,940 determined from saturation experiments.

A further test deals with Cannabinoid receptor 1 (Homo sapiens, UniProt P21554). The description is as §1.
Sequence of Cannabinoid receptor 1 (P21554 whole entry): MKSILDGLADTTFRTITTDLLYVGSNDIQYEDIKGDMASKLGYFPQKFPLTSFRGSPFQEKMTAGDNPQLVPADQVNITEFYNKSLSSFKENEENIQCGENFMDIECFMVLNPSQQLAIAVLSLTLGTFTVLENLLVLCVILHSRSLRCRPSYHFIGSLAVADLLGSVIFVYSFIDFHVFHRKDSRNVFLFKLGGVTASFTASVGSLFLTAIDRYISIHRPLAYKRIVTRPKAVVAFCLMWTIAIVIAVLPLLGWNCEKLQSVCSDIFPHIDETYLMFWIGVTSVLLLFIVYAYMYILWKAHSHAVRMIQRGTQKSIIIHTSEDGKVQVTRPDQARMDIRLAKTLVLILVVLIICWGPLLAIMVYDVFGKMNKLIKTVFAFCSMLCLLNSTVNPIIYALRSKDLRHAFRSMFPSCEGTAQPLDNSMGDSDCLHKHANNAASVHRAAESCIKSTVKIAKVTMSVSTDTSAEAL

Sequence of Cannabinoid receptor 2 (P34972 whole entry): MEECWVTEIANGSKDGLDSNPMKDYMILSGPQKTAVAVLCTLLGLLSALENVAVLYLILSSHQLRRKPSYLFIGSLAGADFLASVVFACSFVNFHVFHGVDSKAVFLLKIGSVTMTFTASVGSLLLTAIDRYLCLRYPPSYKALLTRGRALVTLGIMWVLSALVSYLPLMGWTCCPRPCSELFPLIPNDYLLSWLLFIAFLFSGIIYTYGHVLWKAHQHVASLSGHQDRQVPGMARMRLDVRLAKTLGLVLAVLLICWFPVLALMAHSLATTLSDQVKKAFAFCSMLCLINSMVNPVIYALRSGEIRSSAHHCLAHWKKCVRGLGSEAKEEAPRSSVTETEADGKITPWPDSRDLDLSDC

One may read the Ki as a measure of affinity in units of concentration, obtained from inhibition or displacement. In the case of `CC(C)(C)c1nc(N2CCC(N=C=S)C2)c2nnn(Cc3ccccc3Cl)c2n1` (centres undefined), the values for the Ki at Cannabinoid receptor 2 and at Cannabinoid receptor 1 were 1.36 µM and 5.64 µM, respectively.

Consider `Cc1nonc1Cn1nnc2c(N3CC[C@@H](S)C3)nc(C(C)(C)C)nc21` (single isomer, unassigned), for which the figures for the Ki at Cannabinoid receptor 2 and at Cannabinoid receptor 1 were 0.64 µM and 8 µM, respectively.
